{"source": "patent US3984470A", "about": "“Amidoxime derivatives and process for preparing the same” (priority 1974, dated 1976)", "key": {"neuromuscular functions": {"tested_on": "neuromuscular functions", "experiment": "Rotarod test of BOISSIER / neuromuscular functions", "type": "in vivo, mouse", "settings": "30 minutes after oral administration, mouse"}, "reserpine-induced ptosis": {"tested_on": "reserpine-induced ptosis", "experiment": "Reserpine-induced ptosis in the rat", "type": "in vivo, male rats of the CF1 strain", "settings": "10 mg/kg oral; reserpine 5 mg/kg i.p.; score scale 0-4, mean to 6th hour vs controls", "description": "(§2) The thymoanaleptic properties of the compounds of the invention were determined by means of reserpine-induced ptosis and hypothermia in the rat.\nAn intraperitoneal dose of 5 mg/kg of reserpine was administered to batches of 5 male rats of the CF1 strain weighing an average of 300 g.\nThirty minutes later a dose of the compound to be studied was given by oral route and the inhibitory effect of the reserpine was noted every hour up to the sixth hour. Ptosis was evaluated for each eye in accordance with the following scale:\n4 : eyelids completely closed.\nThe difference between these two averages represents the average decrease of the ptosis in the treated animals as compared to the controls."}, "[1]": {"tested_on": "cholinergic effects provoked by tremorine", "experiment": "Cholinolytic properties: action with respect to tremorine", "type": "in vivo, male mice of the OF1 strain", "settings": "5 mg/kg oral; tremorine 10 mg/kg; difference vs controls", "method": "When injected into mice, tremorine and its metabolite, oxotremorine, produce central cholinergic effects, i.e. normal and provoked tremor as well as peripheral cholinergic effects i.e. weeping, sweating diarrhoea and salivation.\nMale mice of the OF1 strain weighing 22 g, were divided into batches of 10. Each batch with the exception of the control animals, received, by oral route, a dose of the compound to be tested.\nThirty minutes later, 10 mg/kg of tremorine were administered to all the batches and thirty minutes after the injection of tremorine note was taken of the cholinergic effects on each animal in accordance with the following scale: […]"}, "[2]": {"tested_on": "aggressivity of isolated mice", "experiment": "Aggressivity of isolated mice", "type": "in vivo, male mouse", "settings": "Mus musculus, read-out: ED50, inhibition of aggressivity", "method": "If a male mouse is kept alone in a cage for 3 weeks to 1 month, it will spontanesouly attack any other animal of the same species which is placed in the same cage. If the other animal has also been isolated under the same conditions a series of fights takes place.\nMice were isolated for the period of time required to render them spontaneously aggressive. Couples were then put together and note was taken of the number of fights which took place over a period of 3 minutes. Each batch was composed of four pairs of mice.\nThe animals of each batch were then treated by intragastric route with the compound to be studied which was administered in such a way that each batch received a higher dose than the preceding batch. […]\nThe results were expressed in the percentage of decrease in the number of fights between the animals after treatment in comparison with the percentage obtained before treatment which represents the percentage of inhibition of aggressivity."}, "[3]": {"experiment": "Toxicity, method of KARBER and BEHRENS, rats", "settings": "rat, in vivo", "method": "(§1) Finally, tests of toxicity were performed with compounds of the invention following the method of KARBER and BEHRENS."}, "[4]": {"tested_on": "contractile reaction of the nictitating membrane", "experiment": "Ganglioplegic activity on the anesthetized cat (nictitating membrane)", "type": "in vivo", "settings": "intravenous 0.005, 0.1 and 1 mg/kg", "method": "The tonus of the nictitating membrane was first noted after which the contractile reaction of the membrane to electric stimulation of the preganglionic fibre of the cervical sympathetic nerve was tested."}, "spontaneous motricity": {"tested_on": "spontaneous motricity", "experiment": "Spontaneous motricity in the mouse", "type": "in vivo", "method": "Tests were also performed with a view to determining whether the compounds of the invention modify spontaneous motricity."}, "[5]": {"tested_on": "aggressivity of killer rats", "experiment": "Aggressivity of killer rats", "type": "in vivo, male rats", "excerpt": "If, under certain conditions, male rats are kept alone in individual cages for several weeks, the become spontaneously aggressive towards any mouse, which they kill as soon as it is placed in the same cage. Mice were introduced one after another into cages containing an isolated rat and a selection was made of the rats which immediately killed three mice. In this way batches of 6 to 8 rats were constituted. The rats were then given the compound to be studied by intraperitoneal route in such a way that each batch received a higher dose than the preceding batch. […] Table V which follows contains the results obtained 30 minutes after administration of the compound to be studied."}, "[6]": {"tested_on": "stereotypies induced by amphetamine", "experiment": "Potentiation of the stereotypies induced by amphetamine", "type": "in vivo, rats", "settings": "10 mg/kg oral; amphetamine 10 mg/kg i.p.; every 30 min for 150 min", "method": "It is commonly admitted that amphetamine induces stereotypies by stimulating the dopaminergic receptors and inhibiting the re-uptake of dopamine into the neuron.\nThe thymoanaleptics potentiate these stereotypies.\nThirty minutes later, a dose of 10 mg/kg of the compound to be tested was given by oral route. Note was taken of the intensity of the stereotypies every 30 minutes for 150 minutes in accordance with the following scale which indicates the behaviour of the animal.\n0 : the rat is motionless and asleep\n1 : the rat is motionless and awake\n3 : the rat stands on its hind paws and sniffs the lid of its cage in a stereotyped manner.\n4 : the rat licks the walls of its cage in a stereotyped manner\n5 : the rat bites the bars of its cage or sniffs the shavings of its litter in a stereotyped manner\n6 : the rat chews the shavings in a stereotyped manner\nThe average of the 5 results obtained for each batch was calculated and compared with the average obtained with the control animals.\nThe difference between these averages represents the mean increase of the steroetypies of the treated animals in comparison with the controls."}, "[7]": {"experiment": "Toxicity, method of KARBER and BEHRENS, mice", "settings": "mouse, in vivo, po", "method": "as §1"}, "toxicity of yohimbine": {"tested_on": "toxicity of yohimbine", "experiment": "Potentiation of the toxicity of yohimbine (test of QUINTON)", "type": "in vivo, male mice", "settings": "20 mg/kg, same conditions (yohimbine hydrochloride 25 mg/kg i.p.; 24 hours)", "method": "Yohimbine is a substance which provokes an increase in the serotonine level in the brain or a decrease in norepinephrine according to the author.\nFor this purpose, the test of QUINTON was used which is described in Brit. J. Pharmacol. 21, 51 (1963). […] […] The percentage of mortality was noted after 24 hours.\nTable III hereunder expresses the percentage of potentiation of the toxicity due to yohimbine in comparison with the controls.\nThe percentage in question was determined 24 hours after the administration of yohimbine."}, "[8]": {"tested_on": "reserpine-induced hypothermia", "experiment": "Reserpine-induced hypothermia in the rat", "type": "in vivo, male rats CF1", "settings": "10 mg/kg oral; reserpine 5 mg/kg i.p.; mean to 6th hour vs controls", "description": "as §2\nAn intraperitoneal dose of 5 mg/kg of reserpine was administered to batches of 5 male rats CF1 weighing an average of 300 g. Thirty minutes later, the rectal temperature was determined and then a dose of the compound to be tested was given by oral route, except to the control animals. The rectal temperature of all the animals including the controls was taken every hour up to the 6th hour.\nThe difference between these two averages enabled an estimation to be made regarding the antagonistic effect of the compounds of the invention on the hypothermia induced by reserpine."}}, "note": "Like-named read-outs stand apart in the source and are kept apart here.", "data": [{"smiles": "CC(Oc1cccc2ccccc12)C(N)=NO", "note": "(stereo not drawn) [Compound 1, 2-(1-Naphthyloxy)-propionamidoxime]", "values": [{"measurement": "neurotoxic dose 50 (NTD 50) relative to ED50 (isolated mouse)", "setting": "neuromuscular functions", "result": "sufficiently far removed from the ED50"}, {"measurement": "Average decrease of Ptosis", "setting": "reserpine-induced ptosis", "result": 1.7}, {"measurement": "Central response tremor: Normal", "setting": "[1]", "result": 0}, {"measurement": "Central response tremor: Provoked", "setting": "[1]", "result": 0}, {"measurement": "Peripheral cholinergic response: Salivat.", "setting": "[1]", "result": 0}, {"measurement": "Peripheral cholinergic response: Sweating", "setting": "[1]", "result": 0}, {"measurement": "Peripheral cholinergic response: Weeping", "setting": "[1]", "result": 0}, {"measurement": "ED50", "setting": "[2]; po, 1.5 h, intragastric route, 90 minutes after administration", "result": 0.42, "unit": "mg/kg"}, {"measurement": "ED50", "setting": "[2]; oral route", "result": 0.63, "unit": "mg/kg"}, {"measurement": "LD50 at 24 h", "setting": "[3]; ip", "result": 50, "unit": "mg/kg"}, {"measurement": "LD50 at 24 h", "setting": "[3]; po", "result": 108, "unit": "mg/kg"}, {"measurement": "intensity of the contractions of the nictitating membrane (ganglioplegic effect)", "setting": "[4]", "result": "did not modify the intensity of the contractions of the membrane"}, {"measurement": "effect on curiosity of the animal", "setting": "spontaneous motricity; 3 mg/kg intragastric, mouse", "result": "without, however modifying the curiosity of the animal"}, {"measurement": "reduction of spontaneous motricity", "setting": "spontaneous motricity; 3 mg/kg intragastric, mouse, 30 minutes after administration", "result": 50, "unit": "%"}, {"measurement": "sedation at doses active against aggressivity", "setting": "spontaneous motricity; conclusion from ratio of doses", "result": "not sedative at the doses which are active against aggressivity"}, {"measurement": "inhibition in vivo at 3 mg/kg", "setting": "[5]; Rattus norvegicus, ip, 0.5 h, 3 mg/kg i.p., 30 minutes after administration", "result": 100, "unit": "%"}, {"measurement": "antiaggressive properties", "setting": "[5]; conclusion from Table V", "result": "powerful antiaggressive properties"}, {"measurement": "Average increase of the stereotypies", "setting": "[6]", "result": 1}, {"measurement": "LD50 at 24 h", "setting": "[7]", "result": 380, "unit": "mg/kg"}, {"measurement": "Potentiation of the toxicity of yohimbine", "setting": "toxicity of yohimbine", "result": 50, "unit": "%"}, {"measurement": "Average inhibition of hypothermia (positive °C)", "setting": "[8]", "result": 0.7, "unit": "°C"}]}]}
